Source: patent US20240059691A1 (KALVISTA PHARMACEUTICALS LIMITED, priority 2020, published 2024)

biological target: Human Factor XIIa (Homo sapiens (Human), UniProt P00748); assay: Determination of FXIIa inhibition (fluorogenic substrate H-DPro-Phe-Arg-AFC, IC50 assay); type: biochemical; conditions: substrate H-DPro-Phe-Arg-AFC at Km, 25° C.; class scale A-G
How it was run: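 IC50 derived from % remaining activity, taken as the linear fluorescence rate over a 5 min read at 25° C. Substrate H-DPro-Phe-Arg-AFC was used at its Km (Michaelis-Menten) with human FXIIa and serial compound dilutions, 25° C.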

Human Factor XIIa, sequence (P00748 373-615): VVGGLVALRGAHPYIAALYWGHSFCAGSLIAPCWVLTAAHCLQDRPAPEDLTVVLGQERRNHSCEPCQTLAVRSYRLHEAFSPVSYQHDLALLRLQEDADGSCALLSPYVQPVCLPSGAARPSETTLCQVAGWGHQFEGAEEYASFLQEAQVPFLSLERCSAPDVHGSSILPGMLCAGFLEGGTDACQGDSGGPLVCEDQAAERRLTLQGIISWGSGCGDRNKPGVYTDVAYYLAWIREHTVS

| IC50 [µM] | SMILES |
| --- | --- |
| 0.01 to 0.1 | Nc1nccc2c(NCc3ccnc(OCC4CCn5ccnc5C4)c3)cccc12 (single isomer, unassigned) [Example 4430, (S*)-N5-((2-((5,6,7,8-tetrahydroimidazo[1,2-a]pyridin-7-yl)methoxy)pyridin-4-yl)methyl)isoquinoline-1,5-diamine] |
| 0.1 to 0.3 | Nc1nccc2c(NCc3ccnc(OCC4CCn5ccnc5C4)c3)cccc12 (single isomer, unassigned) [Example 4431, (R*)-N5-((2-((5,6,7,8-tetrahydroimidazo[1,2-a]pyridin-7-yl)methoxy)pyridin-4-yl)methyl)isoquinoline-1,5-diamine] |
| 0.1 to 0.3 | Nc1ncc(Cl)c2cc(NCc3ccnc(OCC4CCn5ccnc5C4)c3)ccc12 (single isomer, unassigned) [Example 4439, (R*)-4-chloro-N6-((2-((5,6,7,8-tetrahydroimidazo[1,2-a]pyridin-7-yl)methoxy)pyridin-4-yl)methyl)isoquinoline-1,6-diamine] |
| 0.3 to 1 | Cc1cn2c(n1)CC(COc1cc(CNc3ccc4c(N)ncc(Cl)c4c3)ccn1)CC2 (single isomer, unassigned) [Example 4442, (R*)-4-chloro-N6-((2-((2-methyl-5,6,7,8-tetrahydroimidazo[1,2-a]pyridin-7-yl)methoxy)pyridin-4-yl)methyl)isoquinoline-1,6-diamine] |

biological target: Plasma Kallikrein (Homo sapiens (Human), UniProt P03952); assay: Determination of related protease inhibition: Plasma Kallikrein (fluorogenic substrate at Km); type: biochemical; conditions: 25° C., read-out: IC50 (human PKal)
Sequence (P03952 391-638): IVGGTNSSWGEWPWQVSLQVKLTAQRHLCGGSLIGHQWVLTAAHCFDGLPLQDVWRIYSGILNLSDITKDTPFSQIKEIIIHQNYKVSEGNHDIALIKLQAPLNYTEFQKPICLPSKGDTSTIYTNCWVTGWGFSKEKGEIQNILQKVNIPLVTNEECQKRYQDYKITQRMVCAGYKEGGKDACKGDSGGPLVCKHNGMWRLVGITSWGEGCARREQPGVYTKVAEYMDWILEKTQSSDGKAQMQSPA
Sequence (P03952 20-390 partner): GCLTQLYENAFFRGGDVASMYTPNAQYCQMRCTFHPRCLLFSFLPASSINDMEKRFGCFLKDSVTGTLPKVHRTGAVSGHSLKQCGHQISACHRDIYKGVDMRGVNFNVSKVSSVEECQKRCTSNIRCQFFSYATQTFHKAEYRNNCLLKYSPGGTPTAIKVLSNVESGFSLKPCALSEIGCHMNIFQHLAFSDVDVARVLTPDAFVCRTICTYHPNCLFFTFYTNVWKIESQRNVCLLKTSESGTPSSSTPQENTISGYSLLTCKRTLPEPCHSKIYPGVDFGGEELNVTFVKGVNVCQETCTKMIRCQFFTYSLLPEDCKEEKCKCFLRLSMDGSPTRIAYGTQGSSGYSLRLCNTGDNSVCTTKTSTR
Protocol: Determination of Related Protease Inhibition
In vitro inhibition of related proteases was determined using an ([…] assay based on standard literature methods (see e.g. Shori et al., Biochem. Pharmacol., 1992, 43, 1209; Bouckaert et al., European Journal of Medicinal Chemistry 110 (2016) 181). Human serine protease enzymes Plasma Kallikrein, KLK1, FXa, Plasmin, Thrombin and Trypsin were assayed for enzymatic activity using an appropriate fluorogenic substrate at Km concentration, FXIa at fixed substrate concentration of 100 μM, and various concentrations of the test compound. Protease activity was measured by monitoring the accumulation of liberated fluorescence from the substrate over […]. The linear rate of fluorescence increase per minute was expressed as percentage (%) activity. IC50 values were calculated as the concentration of inhibitor giving 50% inhibition of the uninhibited enzyme activity (100%).

| IC50 [µM] | SMILES |
| --- | --- |
| > 4 | Nc1nccc2c(NCc3ccnc(OCC4CCn5ccnc5C4)c3)cccc12 (single isomer, unassigned) [Example 4430, (S*)-N5-((2-((5,6,7,8-tetrahydroimidazo[1,2-a]pyridin-7-yl)methoxy)pyridin-4-yl)methyl)isoquinoline-1,5-diamine] |
| > 4 | Nc1nccc2c(NCc3ccnc(OCC4CCn5ccnc5C4)c3)cccc12 (single isomer, unassigned) [Example 4431, (R*)-N5-((2-((5,6,7,8-tetrahydroimidazo[1,2-a]pyridin-7-yl)methoxy)pyridin-4-yl)methyl)isoquinoline-1,5-diamine] |
| 10 to 40 | Nc1ncc(Cl)c2cc(NCc3ccnc(OCC4CCn5ccnc5C4)c3)ccc12 (single isomer, unassigned) [Example 4439, (R*)-4-chloro-N6-((2-((5,6,7,8-tetrahydroimidazo[1,2-a]pyridin-7-yl)methoxy)pyridin-4-yl)methyl)isoquinoline-1,6-diamine] |
| 10 to 40 | Cc1cn2c(n1)CC(COc1cc(CNc3ccc4c(N)ncc(Cl)c4c3)ccn1)CC2 (single isomer, unassigned) [Example 4442, (R*)-4-chloro-N6-((2-((2-methyl-5,6,7,8-tetrahydroimidazo[1,2-a]pyridin-7-yl)methoxy)pyridin-4-yl)methyl)isoquinoline-1,6-diamine] |
| > 100 | CN1CCC(CNc2ccc(CNc3ccc4[nH]cnc4c3F)cn2)CC1 [Example 1191, 4-fluoro-N-((6-(((1-methylpiperidin-4-yl)methyl)amino)pyridin-3-yl)methyl)-1H-benzo[d]imidazol-5-amine] |
| > 100 | CN1CCC(CNc2ccc(CNc3nc4ccccc4n3C)cn2)CC1 [Example 1192, 1-methyl-N-((6-(((1-methylpiperidin-4-yl)methyl)amino)pyridin-3-yl)methyl)-1H-benzo[d]imidazol-2-amine] |
| > 100 | CN1CCC(CNc2ccc(CNc3cc4c(=O)[nH]ccn4c3)cn2)CC1 [Example 1199, 7-(((6-(((1-methylpiperidin-4-yl)methyl)amino)pyridin-3-yl)methyl)amino)pyrrolo[1,2-a]pyrazin-1(2H)-one] |
| > 100 | COc1cccc2sc(NCc3ccc(NCC4CCN(C)CC4)nc3)nc12 [Example 1200, 4-methoxy-N-((6-(((1-methylpiperidin-4-yl)methyl)amino)pyridin-3-yl)methyl)benzo[d]thiazol-2-amine] |
| > 100 | CN1CCC(CNc2ccc(CNc3cc(C(=O)O)c4cnccc4c3)cn2)CC1 [Example 1203, 6-(((6-(((1-methylpiperidin-4-yl)methyl)amino)pyridin-3-yl)methyl)amino)isoquinoline-8-carboxylic acid] |
| > 100 | CN1CCC(CNc2ccc(CNc3cc(C(=O)O)c4[nH]cc(Cl)c4c3)cn2)CC1 [Example 1204, 3-chloro-5-(((6-(((1-methylpiperidin-4-yl)methyl)amino)pyridin-3-yl)methyl)amino)-1H-indole-7-carboxylic acid] |
| > 100 | CNC(=O)c1cc(NCc2ccc(NCC3CCN(C)CC3)nc2)cc2ccncc12 [Example 1210, N-methyl-6-(((6-(((1-methylpiperidin-4-yl)methyl)amino)pyridin-3-yl)methyl)amino)isoquinoline-8-carboxamide] |
| > 100 | CN1CCC(CNc2ccc(CNc3cnc4[nH]cc(C#N)c4c3)cn2)CC1 [Example 1212, 5-(((6-(((1-methylpiperidin-4-yl)methyl)amino)pyridin-3-yl)methyl)amino)-1H-pyrrolo[2,3-b]pyridine-3-carbonitrile] |
| > 100 | CN1CCC(CNc2ccc(CNc3ccc(F)c4cnccc34)cn2)CC1 [Example 1214, 8-fluoro-N-((6-(((1-methylpiperidin-4-yl)methyl)amino)pyridin-3-yl)methyl)isoquinolin-5-amine] |
| > 100 | Cc1cc(NCc2ccc(NCC3CCN(C)CC3)nc2)c2cc[nH]c2c1 [Example 1215, 6-methyl-N-((6-(((1-methylpiperidin-4-yl)methyl)amino)pyridin-3-yl)methyl)-1H-indol-4-amine] |
| > 100 | Cc1cc2c(NCc3ccc(NCC4CCN(C)CC4)nc3)ccnc2n1C [Example 1216, 1,2-dimethyl-N-((6-(((1-methylpiperidin-4-yl)methyl)amino)pyridin-3-yl)methyl)-1H-pyrrolo[2,3-b]pyridin-4-amine] |
| > 100 | CN1CCC(CNc2ccc(CNc3ccnc4[nH]ncc34)cn2)CC1 [Example 1218, N-((6-(((1-methylpiperidin-4-yl)methyl)amino)pyridin-3-yl)methyl)-1H-pyrazolo[3,4-b]pyridin-4-amine] |

| IC50 [µM] | SMILES |
| --- | --- |
| > 40 | CNC(=O)c1cc(NCc2ccc(NCC3CCN(C)CC3)nc2)cc2c(Cl)c[nH]c12 [Example 1220, 3-chloro-N-methyl-5-(((6-(((1-methylpiperidin-4-yl)methyl)amino)pyridin-3-yl)methyl)amino)-1H-indole-7-carboxamide] |
| > 100 | CN1CCC(CNc2ccc(CNc3ccnc4[nH]cc(C#N)c34)cn2)CC1 [Example 1221, 4-(((6-(((1-methylpiperidin-4-yl)methyl)amino)pyridin-3-yl)methyl)amino)-1H-pyrrolo[2,3-b]pyridine-3-carbonitrile] |
| > 40 | CN1CCC(CNc2ccc(CNc3ccn4ccnc4c3)cn2)CC1 [Example 1222, N-((6-(((1-methylpiperidin-4-yl)methyl)amino)pyridin-3-yl)methyl)imidazo[1,2-a]pyridin-7-amine] |
| > 100 | CN1CCC(CNc2ccc(CNc3ccnc4c3ccn4C)cn2)CC1 [Example 1225, 1-methyl-N-((6-(((1-methylpiperidin-4-yl)methyl)amino)pyridin-3-yl)methyl)-1H-pyrrolo[2,3-b]pyridin-4-amine] |
| > 100 | CN1CCC(CNc2ccc(CNc3ncnc4[nH]ccc34)cn2)CC1 [Example 1227, N-((6-(((1-methylpiperidin-4-yl)methyl)amino)pyridin-3-yl)methyl)-7H-pyrrolo[2,3-d]pyrimidin-4-amine] |
| > 100 | Cc1ncc(NCc2ccc(NCC3CCN(C)CC3)nc2)c2cc[nH]c12 [Example 1244, 7-methyl-N-((6-(((1-methylpiperidin-4-yl)methyl)amino)pyridin-3-yl)methyl)-1H-pyrrolo[2,3-c]pyridin-4-amine] |
| > 100 | COC(=O)c1cc2c(NCc3ccc(NCC4CCN(C)CC4)nc3)ccnc2[nH]1 [Example 1247, methyl 4-(((6-(((1-methylpiperidin-4-yl)methyl)amino)pyridin-3-yl)methyl)amino)-1H-pyrrolo[2,3-b]pyridine-2-carboxylate] |
| > 40 | CN1CCC(CNc2ccc(CNc3ccnc4[nH]c(C(=O)O)cc34)cn2)CC1 [Example 1253, 4-(((6-(((1-methylpiperidin-4-yl)methyl)amino)pyridin-3-yl)methyl)amino)-1H-pyrrolo [2,3-b]pyridine-2-carboxylic acid] |
| > 40 | CN1CCC(CNc2ccc(CNc3ccnc4c3CC(C)(C)N4)cn2)CC1 [Example 1257, 2,2-dimethyl-N-((6-(((1-methylpiperidin-4-yl)methyl)amino)pyridin-3-yl)methyl)-2,3-dihydro-1H-pyrrolo[2,3-b]pyridin-4-amine] |
| > 40 | CN1CCC(CNc2ccc(CNc3ccc4cncc(N5CCC(F)(F)C5)c4c3)cn2)CC1 [Example 1260, 4-(3,3-difluoropyrrolidin-1-yl)-N-((6-(((1-methylpiperidin-4-yl)methyl)amino)pyridin-3-yl)methyl)isoquinolin-6-amine] |
| > 40 | CN1CCC(CNc2ccc(CNc3cc(C#N)nc4[nH]ccc34)cn2)CC1 [Example 1261, 4-(((6-(((1-methylpiperidin-4-yl)methyl)amino)pyridin-3-yl)methyl)amino)-1H-pyrrolo[2,3-b]pyridine-6-carbonitrile] |
| > 40 | CN1CCC(CNc2ccc(CNc3cc(C(N)=O)nc4[nH]ccc34)cn2)CC1 [Example 1264, 4-(((6-(((1-methylpiperidin-4-yl)methyl)amino)pyridin-3-yl)methyl)amino)-1H-pyrrolo[2,3-b]pyridine-6-carboxamide] |
| > 40 | Nc1ncc(Cl)c2cc(NCc3ccnc(OCC4CCn5c(C(=O)O)cnc5C4)c3)ccc12 (stereo not drawn) [Example 4453, 7-(((4-(((1-amino-4-chloroisoquinolin-6-yl)amino)methyl)pyridin-2-yl)oxy)methyl)-5,6,7,8-tetrahydroimidazo[1,2-a]pyridine-3-carboxylic acid] |
| > 100 | Cc1nnc(-c2ccc(NCc3ccnc(OCC4CCN(C)CC4)c3)cc2)o1 [Example 4457, 4-(5-methyl-1,3,4-oxadiazol-2-yl)-N-((2-((1-methylpiperidin-4-yl)methoxy)pyridin-4-yl)methyl)aniline] |
| > 100 | CN1CCC(COc2cc(CNc3ccc(N(C)C)nn3)ccn2)CC1 [Example 4458, N3,N3-dimethyl-N6-((2-((1-methylpiperidin-4-yl)methoxy)pyridin-4-yl)methyl)pyridazine-3,6-diamine] |

| SMILES | IC50 [µM] |
| --- | --- |
| CC(=O)c1cncc(NCc2ccnc(OCC3CCN(C)CC3)c2)c1 [Example 4455] | > 100 |
